Source: ChEMBL document CHEMBL1201862, “PubChem BioAssay data set” (2004)
One block for each compound: values may come before it. Calls of active or inactive are those of the source.

How the values were obtained:
[1] = Trypanosoma cruzi growth suppression in host cells – NIH3T3 host cells, beta-gal luminescence, confirmation (AID 2044); format: functional, cell-based;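 also: intracellular parasites grown in NIH/3T3 mouse fibroblasts as host cells; luminescent beta-galactosidase reporter signal from transgenic T. cruzi replicating inside host cells; inhibitors lower the luminescence signal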
[2] = NIH3T3 cell viability loss – ATP luminescence, mouse fibroblasts, counter-screen, dose response (AID 2010); format: functional, cell-based;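 also: cells exposed to compound for about 90 hours before reading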
[3] = target: T1, Microphthalmia-associated transcription factor (Homo sapiens, UniProt O75030); experiment: reducers of TRPM1 reporter luminescence, concentration series – cell-based, SK-MEL-5, cherry-picked, set 3, MITF inhibitor project, dose response (AID 493073); format: functional;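 also: SK-MEL-5 melanoma cells with luciferase driven by the MITF target TRPM1 promoter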
T1 sequence (O75030 whole entry): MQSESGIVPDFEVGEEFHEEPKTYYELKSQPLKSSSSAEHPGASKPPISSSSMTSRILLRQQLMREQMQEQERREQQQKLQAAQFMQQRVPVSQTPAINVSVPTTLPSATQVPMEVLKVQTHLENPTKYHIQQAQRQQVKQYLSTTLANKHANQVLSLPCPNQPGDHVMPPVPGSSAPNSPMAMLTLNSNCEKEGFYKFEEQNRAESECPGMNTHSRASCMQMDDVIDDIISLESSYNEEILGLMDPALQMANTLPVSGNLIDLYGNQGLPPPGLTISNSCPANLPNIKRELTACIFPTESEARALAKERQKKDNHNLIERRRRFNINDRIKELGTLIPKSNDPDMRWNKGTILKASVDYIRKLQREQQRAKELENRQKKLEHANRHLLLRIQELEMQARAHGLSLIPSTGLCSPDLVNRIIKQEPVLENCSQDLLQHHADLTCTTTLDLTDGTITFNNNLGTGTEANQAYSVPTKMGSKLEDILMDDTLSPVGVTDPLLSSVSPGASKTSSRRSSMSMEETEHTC

[4] = T. cruzi infection blockers in NIH3T3 cells – beta-gal luminescence, NIH3T3 host cells, confirmation (AID 2630); format: functional, cell-based; settings: Mus musculus
INS1 [5] = experiment: INS-1E survival protection against cytokine death – cell-based, luminescence, retest, dose response (AID 449756); format: functional; settings: Rattus norvegicus;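 also: cell death triggered by IL-1 beta plus TNF-alpha plus IFN-gamma mixture; protective hits raise ATP signal compared with cytokine alone wells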
[6] = Luminescence Cell-Based Secondary HTS screen to identify cytotoxic compounds of NIH3T3 cells. [Related pubchem assays: 1885, 1968 ]; format: functional
[7] = Luminescence Cell-Based/Microorganism Confirmation at Dose of Inhibitors of Trypanosoma cruzi Infection. [Related pubchem assays: 1885, 1968 ]; format: functional
[8] = target: T2, Ubiquitin-conjugating enzyme E2 N (Homo sapiens, UniProt P61088); format: functional;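 also: Dose-response confirmation in a TR-FRET assay detecting UBC13-driven polyubiquitin chain formation, inhibition measured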
T2 sequence (P61088 whole entry): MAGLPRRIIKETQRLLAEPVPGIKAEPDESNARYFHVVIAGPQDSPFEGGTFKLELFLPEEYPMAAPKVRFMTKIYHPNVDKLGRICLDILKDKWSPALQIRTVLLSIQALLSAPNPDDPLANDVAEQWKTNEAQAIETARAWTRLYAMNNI

Escherichia coli [9] = experiment: microbe, parasite or virus in culture
[10] = target: Lysine-specific demethylase 4A (Homo sapiens, UniProt O75164); experiment: inhibition of JMJD2A H3K9me3 demethylation – biochemical, DELFIA europium, cherry-picked samples, selectivity assay for GASC-1 inhibitor project, dose response (AID 488840)
Escherichia coli [11] = experiment: microbe, parasite or virus in culture; remark: listed apart in the source
[12] = target: T3, Short transient receptor potential channel 4 (Mus musculus, UniProt Q9QUQ5); experiment: potency of mouse TRPC4 calcium flux blockers – cell-based, HEK293 TRPC4/mu-opioid, DAMGO stimulus, Fluo-4, dose response (AID 492994); format: functional
T3 sequence (Q9QUQ5 whole entry): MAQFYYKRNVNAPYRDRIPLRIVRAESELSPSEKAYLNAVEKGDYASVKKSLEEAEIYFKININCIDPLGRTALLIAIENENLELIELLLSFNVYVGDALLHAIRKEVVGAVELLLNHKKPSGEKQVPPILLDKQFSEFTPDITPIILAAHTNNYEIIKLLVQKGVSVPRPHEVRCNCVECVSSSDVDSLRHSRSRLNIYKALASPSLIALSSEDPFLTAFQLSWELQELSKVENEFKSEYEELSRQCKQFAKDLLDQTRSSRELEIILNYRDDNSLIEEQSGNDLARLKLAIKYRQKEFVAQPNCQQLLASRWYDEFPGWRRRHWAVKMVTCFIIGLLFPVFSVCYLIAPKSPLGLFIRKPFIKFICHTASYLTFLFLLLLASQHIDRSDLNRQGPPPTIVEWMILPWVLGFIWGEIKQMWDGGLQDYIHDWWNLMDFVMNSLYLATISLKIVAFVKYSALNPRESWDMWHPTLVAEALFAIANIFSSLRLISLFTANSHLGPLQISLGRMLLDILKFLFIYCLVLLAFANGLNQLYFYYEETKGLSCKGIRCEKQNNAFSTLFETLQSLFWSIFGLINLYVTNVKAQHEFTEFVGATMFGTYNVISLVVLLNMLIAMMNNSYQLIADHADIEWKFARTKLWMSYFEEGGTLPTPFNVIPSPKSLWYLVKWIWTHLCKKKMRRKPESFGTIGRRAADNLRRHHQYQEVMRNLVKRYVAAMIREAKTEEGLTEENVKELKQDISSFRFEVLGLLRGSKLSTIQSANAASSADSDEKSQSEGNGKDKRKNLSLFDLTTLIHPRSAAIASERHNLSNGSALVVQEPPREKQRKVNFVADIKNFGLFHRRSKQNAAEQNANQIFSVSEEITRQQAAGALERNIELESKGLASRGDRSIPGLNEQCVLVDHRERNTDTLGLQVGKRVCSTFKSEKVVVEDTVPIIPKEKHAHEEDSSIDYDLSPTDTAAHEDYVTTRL

[13] = target: T3, Short transient receptor potential channel 4; experiment: SAR Analysis for the identification of selective inhibits of the transient receptor potential cation channel C4 (TRPC4): Automated Electrophysiology_2. [Related pubchem assays (depositor defined):AID2256]; format: functional
INS1 [14] = experiment: INS-1E mitochondrial potential rescue under cytokines – cell-based, JC-1 fluorescence ratio, dry powder, dose response (AID 488931); format: functional; settings: Rattus norvegicus
INS1 [15] = experiment: beta-cell survival under cytokine stress – INS-1E, ATP luminescence, dry powder, dose response (AID 488844); format: functional, cell-based; settings: Rattus norvegicus

Lysine-specific demethylase 4A, sequence (O75164 whole entry): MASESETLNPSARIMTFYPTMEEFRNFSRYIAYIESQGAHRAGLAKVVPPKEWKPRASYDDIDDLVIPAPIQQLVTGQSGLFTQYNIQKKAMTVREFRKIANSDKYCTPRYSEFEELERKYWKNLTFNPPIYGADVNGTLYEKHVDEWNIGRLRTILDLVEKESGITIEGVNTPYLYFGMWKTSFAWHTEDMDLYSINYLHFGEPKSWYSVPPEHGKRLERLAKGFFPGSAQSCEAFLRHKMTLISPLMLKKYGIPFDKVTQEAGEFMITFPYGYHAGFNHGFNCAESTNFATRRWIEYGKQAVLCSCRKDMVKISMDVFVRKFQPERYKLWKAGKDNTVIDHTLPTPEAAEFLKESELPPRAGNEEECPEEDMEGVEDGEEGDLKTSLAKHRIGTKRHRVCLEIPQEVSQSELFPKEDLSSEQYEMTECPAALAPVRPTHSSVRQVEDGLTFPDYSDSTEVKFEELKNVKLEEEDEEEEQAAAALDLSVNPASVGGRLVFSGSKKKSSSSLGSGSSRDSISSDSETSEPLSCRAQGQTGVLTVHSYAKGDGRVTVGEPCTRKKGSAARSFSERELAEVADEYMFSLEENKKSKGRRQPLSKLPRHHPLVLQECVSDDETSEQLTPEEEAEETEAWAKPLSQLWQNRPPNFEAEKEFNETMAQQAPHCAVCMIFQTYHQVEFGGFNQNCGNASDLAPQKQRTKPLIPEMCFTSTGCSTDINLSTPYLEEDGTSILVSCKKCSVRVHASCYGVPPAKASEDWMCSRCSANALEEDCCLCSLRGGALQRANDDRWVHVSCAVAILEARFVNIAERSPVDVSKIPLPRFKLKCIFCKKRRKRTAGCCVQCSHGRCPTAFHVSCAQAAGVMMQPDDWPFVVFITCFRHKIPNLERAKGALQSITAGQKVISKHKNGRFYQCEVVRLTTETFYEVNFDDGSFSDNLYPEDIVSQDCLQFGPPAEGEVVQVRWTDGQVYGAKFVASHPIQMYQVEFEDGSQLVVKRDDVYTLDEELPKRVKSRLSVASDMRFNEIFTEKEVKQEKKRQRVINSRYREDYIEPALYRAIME

SMILES: Cc1ccc(NC(=O)CCC(=O)N/N=C/c2ccc([N+](=O)[O-])o2)cc1C
EC50 [1]: < 0.1 µM (active)
EC50 [2]: > 30 µM (not active)
AC50 [3]: 6.25 µM (active)
EC50 [4]: 0.032 µM (active)
AC50 (INS1 [5]): 7.44 µM (active)
EC50 [6]: > 195 µM (not active)
EC50 (cells): 0.016 µM (active)
EC50 [7]: 0.032 µM (active)

SMILES: C[C@@H](CN1CCC[C@H]1CN1C(N)=NC[C@@H]1Cc1ccccc1)N1C[C@@H](Cc2ccccc2)N(CCc2ccc(Cl)c(Cl)c2)C1=N
IC50 [8]: > 20 µM (inactive)
AC50 (Escherichia coli [9]): 15.6 µM (active)
AC50 [10]: 9.21 µM (active)
AC50 (Escherichia coli [11]): 24.1 µM (active)

IC50 [12]: 5.24 µM (active)
IC50 [13]: 7.54 µM (active)
SMILES: CCN(CC)c1cc(C)c2ccccc2n1

SMILES: COc1ccc(S(=O)(=O)N(C)C[C@@H]2Oc3c(NC(=O)Nc4ccc5c(c4)OCO5)cccc3C(=O)N([C@@H](C)CO)C[C@H]2C)cc1
AC50 (INS1 [14]): 98.3 µM (active)

SMILES: COc1ccc(S(=O)(=O)N(C)C[C@@H]2Oc3c(NC(=O)Nc4ccc(F)cc4)cccc3C(=O)N([C@H](C)CO)C[C@H]2C)cc1
AC50 (INS1 [15]): 41.7 µM (active)
